Measurements from patent US20220024879A1, “COMPOUNDS FOR TREATMENT OF HEPACI VIRUS INFECTION AND METHOD FOR DETERMINING THERAPY OF HEPACI VIRUS INFECTION, IN PARTICULAR, HCV INFECTION” (priority 2018, published 2022).

How the values were obtained:
[1] = tested on: low pH-triggered HCV cell membrane fusion; experiment: Fusion at the plasma membrane assay; format: cell-based, Hepatitis C virus; conditions: 5 nM Con A, pH 5.0 wash 5 minutes
[2] = tested on: Jc1 and HCV strains Con1 (GT1b), J8 (GT2b), S52 (GT3a), ED43 (GT4a), SA13 (GT5a), HK6a (GT6a) and QC69 (GT7a); format: cell-based; conditions: Jc1 versus GT1b, 2b, 3a, 4a, 5a, 6a, 7a strains
JcR2a/J8-E1-R3.2_4 aa = format: cell-based, Hepatitis C virus; conditions: M290A, W299N, V301T, P310Q
J8 (GT2b) = format: cell-based
JcR2a-Flun-R [3] = format: cell-based
JcR2a = experiment: HCV whole life cycle compound screening assay; format: cell-based, Hepatitis C virus; conditions: Jc1 reporter virus, versus flunarizine
JcR2a-E1 R4 = format: cell-based; conditions: 313-383
Jc1R2a/J8-E1 chimera = format: cell-based; conditions: entire E1 replaced
[4] = tested on: low pH-triggered HCV cell membrane fusion; conditions: earlier work of the applicant, data not shown; cited from earlier work
Jc1/J8-E1_R3 = format: cell-based; conditions: Aa 267-312
JcR2a-Flun-R [5] = conditions: Jc1 passaged in presence of flunarizine; Perin et al.; cited from earlier work
JcR2a/J8-E1_R1 = format: cell-based; conditions: Aa 192-230

Row | Compound | strain-dependent antiviral activity (in words) [2] | resistance of JcR2a/J8-E1-R3.2_4 aa, shift of the IC50 versus parental JcR2a (JcR2a/J8-E1-R3.2_4 aa) | resistance of J8 (GT2b) (in words) (J8 (GT2b)) | antiviral activity, effect of the substituent (SAR, in words) (JcR2a) | other results
1 | COc1ccc(-c2cc(=O)c3c(O)c(O)c(OC)cc3o2)cc1 [BJ486K] |  |  |  |  | inhibition of HCV infection when administered only during the low pH washing step [1]: did not inhibit HCV infection
2 | CN1CCN(C(c2ccccc2)c2ccc(Cl)cc2)CC1 (centres unmarked) [chlorcyclizine] | preferentially inhibited Jc1 | 6 fold | pronounced resistance |  | 
3 | COc1cc(/C=C/C(=O)CC(=O)/C=C/c2ccc(O)c(OC)c2)ccc1O [curcumin] | similarly active against all tested viruses | not |  |  | inhibition of JcR2a-Flun-R compared with JcR2a (in words) (JcR2a-Flun-R [3]): equally inhibited
4 | C/C(=C\c1ccccc1)CN1CCN(C(c2ccc(F)cc2)c2ccc(F)cc2)CC1 [entry 20] |  |  |  | not beneficial | 
5 | Fc1ccc(C(c2ccc(F)cc2)N2CCN(C/C=C/c3ccccc3)CC2)cc1 [flunarizine] | preferentially inhibited Jc1 | 8 fold | pronounced resistance |  | susceptibility of chimera with J8 E1 region R4 (in words) (JcR2a-E1 R4): partial resistance; susceptibility of chimeric virus with J8-derived E1 (in words) (Jc1R2a/J8-E1 chimera): resistant; antiviral activity when applied only during the 5 minute low pH wash [4]: full antiviral activity; susceptibility of chimera with J8 E1 region R3 (in words) (Jc1/J8-E1_R3): resistance profile comparable to Jc1 encoding the flunarizine resistance mutations; resistance conferred by three mutations in E1 and E2 (JcR2a-Flun-R [5]): ca. 50 fold; susceptibility of chimera with J8 E1 region R1 (in words) (JcR2a/J8-E1_R1): partial resistance
6 | p-methoxy-flunarizine |  |  | pronounced resistance | beneficial | dose at which cell viability of treated cells was reduced by 50% (Huh-7.5-fluc cells): 9.6 µM
